Test results published in patent publication US20170362228A1, “TETRAHYDRO-PYRIDO[3,4-b]INDOLE ESTROGEN RECEPTOR MODULATORS AND USES THEREOF” (Genentech, Inc., priority 2016, published 2017).
Like-named read-outs stand apart in the source and are kept apart here.

Columns and labels:
[1] = target: T1, estrogen receptor alpha (ESR1) (Homo sapiens, UniProt P03372); assay: Breast Cancer Cell ERa High Content Fluorescence Imaging Degradation Assay (Example 901); type: cell-based; conditions: Table 1a; MCF7 breast cancer cells, 4 hours; plateau of the maximal effect; DMSO and Fulvestrant define 0% and 100% changes in ESR1
T1 construct: endogenous in cells; host or cells: MCF7 breast cancer cells
T1 sequence (P03372 1-595): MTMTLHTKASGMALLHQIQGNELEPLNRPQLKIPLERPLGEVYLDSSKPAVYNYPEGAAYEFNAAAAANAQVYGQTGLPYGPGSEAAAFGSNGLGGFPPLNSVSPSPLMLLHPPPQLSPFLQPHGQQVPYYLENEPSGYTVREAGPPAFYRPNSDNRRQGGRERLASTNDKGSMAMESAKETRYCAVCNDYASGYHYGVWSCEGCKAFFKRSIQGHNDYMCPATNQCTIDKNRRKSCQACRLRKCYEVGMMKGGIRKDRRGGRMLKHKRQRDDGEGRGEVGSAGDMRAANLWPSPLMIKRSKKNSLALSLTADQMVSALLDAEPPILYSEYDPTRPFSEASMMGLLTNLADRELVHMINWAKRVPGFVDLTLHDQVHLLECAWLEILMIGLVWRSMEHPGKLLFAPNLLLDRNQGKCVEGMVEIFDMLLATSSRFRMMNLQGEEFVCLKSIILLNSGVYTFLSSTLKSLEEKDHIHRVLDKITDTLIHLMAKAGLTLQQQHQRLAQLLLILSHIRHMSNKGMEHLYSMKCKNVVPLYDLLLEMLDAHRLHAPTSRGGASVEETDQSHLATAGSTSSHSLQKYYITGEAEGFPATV
Procedure: MCF7 breast cancer cells were seeded on day 1 at a density of 10,000 cells per well in 384 well poly-lysine coated tissue culture plate (Greiner # T-3101-4), in 50 μL/well RPMI (phenol red free), 10% FBS (Charcoal stripped), containing L-glutamine. On day 2, compounds were prepared at 2 compound source concentrations: 100 μM and 1 μM (ultimately to give 2 overlapping titration curves), in a Labcyte low dead volume plate, 10 μL/well, and 10 μL of DMSO in designated wells for backfill, and 5 μM Fulvestrant (control compound) in designated wells. Compounds and controls were dispensed using a Labcyte Echo acoustic dispenser to dispense compounds with a predefined serial dilution (1.8×, 10 point, in duplicate) and appropriate backfill and control compounds (final total volume transferred was 417.5 nL and compound dispense volume ranges from 2.5 nL to 417.5 nL; 0.84% DMSO (v/v) final), ultimately producing a concentration range from 0.05 nM to 835 nM. Cell plates were incubated at 37° C., for 4 hours. Fixation and permeabilization were carried out using a Biotek EL406 plate washer and dispenser as follows. Cells were fixed by addition of 15 μL of 16% paraformaldehyde (Electron Microscopy Sciences #15710-S) directly to the 50 μL cell culture medium in each well using the peristaltic pump 5 μL cassette on a Biotek EL406 (final concentration of formaldehyde was 3.7% w/v). Samples were incubated 30 minutes. Well contents was aspirated and 50 μL/well of Phosphate Buffered Saline (PBS) containing 0.5% w/v bovine serum albumen, 0.5% v/v Triton X-100 (Antibody Dilution Buffer) was added to each well. Samples were incubated for 30 minutes. Well contents were aspirated and washed 3 times with 100 μL/well of PBS. Immunofluorescence staining of estrogen receptor alpha (ESR1) was carried out using a Biotek EL406 plate washer and dispenser as follows. The well supernatant was aspirated from the wells and 25 μL/well of anti-ESR1 mAb (F10) (Santa Cruz sc-8002) diluted 1:1000 in Antibody Dilution Buffer was dispensed. Samples were incubated for 2 hours at room temperature. Samples were washed 4 times with 100 μL/well of PBS. 25 uL/well of secondary antibody solution (Alexafluor 488 conjugate anti-mouse IgG (LifeTechnologies #A21202) diluted 1:1000 and Hoechst 33342 1 μg/ml diluted in Antibody Dilution Buffer) were dispensed into each well. Samples were incubated for 2 hours at room temperature. Samples were washed 3 times with 100 μL/well of PBS using a Biotek EL406. Quantitative fluorescence imaging of ESR1 was carried out using a Cellomics Arrayscan V (Thermo). Fluorescence images of the samples (Channel 1: XF53 Hoechst (DNA stain); Channel 2: XF53 FITC (ESR1 stain)) were acquired using a Cellomics VTI Arrayscan using the Bioapplication “Compartmental Analysis” using the auto-exposure (based on DMSO control wells) setting “peak target percentile” set to 25% target saturation for both channels. Channel 1 (DNA stain) was used to define the nuclear region (Circ). Measurements of “Mean_CircAvgIntCh2”, which is the Alexafluor 488 fluorescence intensity (ESR1) within the nuclear region, was measured on a per cell basis and averaged over all the measured cells. Data analysis was carried out using Genedata Screener Software, with DMSO and 5 nM Fulvestrant treated samples being used to define the 0% and 100% changes in ESR1. The “Robust Fit” method was used to define the inflexion point of curve (EC50) and the plateau of the maximal effect (Sinf). Degradation data for exemplary Formula I compounds is reported as ER-alpha MCF7 HCS Sinf(%) values in Table 1.

MCF7 cells = assay: In vitro cell proliferation assays (Examples 902 and 903), MCF7; type: cell-based; conditions: Homo sapiens
Procedure: Efficacy of estrogen receptor modulator compounds and chemotherapeutic compounds are measured by a cell proliferation assay employing the following protocol (Mendoza et al (2002) Cancer Res. 62:5485-5488).
The CellTiter-Glo® Luminescent Cell Viability Assay is a homogeneous method to determine the number of viable cells in culture based on quantitation of the ATP present, which signals the presence of metabolically active cells. The CellTiter-Glo® Assay is designed for use with multiwell plate formats, making it ideal for automated high-throughput screening (HTS), cell proliferation and cytotoxicity assays. The homogeneous assay procedure involves adding a single reagent (CellTiter-Glo® Reagent) directly to cells cultured in serum-supplemented medium. Cell washing, removal of medium or multiple pipetting steps are not required. The Cell Titer-Glo® Luminescent Cell Viability Assay, including reagents and protocol are commercially available (Promega Corp., Madison, Wis., Technical Bulletin TB288).
The assay assesses the ability of compounds to enter cells and inhibit cell proliferation. The assay principle is based on the determination of the number of viable cells present by quantitating the ATP present in a homogenous assay where addition of the Cell TiterGlo® reagent results in cell lysis and generation of a luminescent signal through the luciferase reaction. The luminescent signal is proportional to the amount of ATP present.
Procedure: Day 1—Seed Cell Plates (384-well black, clear bottom, microclear, TC plates with lid from Falcon #353962), Harvest cells, Seed cells at 1000 cells per 54 μl per well into 384 well Cell Plates for 3 days assay. Cell Culture Medium: RPMI or DMEM high glucose, 10% Fetal Bovine Serum, 2 mM L-Glutamine, P/S. Incubate 0/N (overnight) at 37° C., 5% CO2.
Day 2—Add Drug to Cells, Compound Dilution, DMSO Plates (serial 1:2 for 9 points). Add 20 μl of compound at 10 mM in the 2nd column of 96 well plate. Perform serial 1:2 across the plate (10 μl+20 μl 100% DMSO) for a total of 9 points using Precision Media Plates 96-well conical bottom polypropylene plates from Nunc (cat.#249946) (1:50 dilution). Add 147 μl of Media into all wells. Transfer 3 μl of DMSO+compound from each well in the DMSO Plate to each corresponding well on Media Plate using Rapidplate® (Caliper, a Perkin-Elmer Co.). For 2 drug combination studies, transfer one drug 1.5 μl of DMSO+compound from each well in the DMSO Plate to each corresponding well on Media Plate using Rapidplate. Then, transfer another drug 1.5 μl to the medium plate.
Drug Addition to Cells, Cell Plate (1:10 dilution): Add 6 μl of media+compound directly to cells (54 μl of media on the cells already). Incubate 3 days at 37° C., 5% CO2 in an incubator that will not be opened often.
Day 5—Develop Plates, Thaw Cell Titer Glo Buffer at room temperature: Remove Cell Plates from 37° C. and equilibrate to room temperature for about 30 minutes. Add Cell Titer-Glo® Buffer to Cell Titer-Glo® Substrate (bottle to bottle). Add 30 μl Cell Titer-Glo® Reagent (Promega cat.# G7572) to each well of cells. Place on plate shaker for about 30 minutes. Read luminescence on Analyst HT Plate Reader (half second per well).
Cell viability assays and combination assays: Cells were seeded at 1000-2000 cells/well in 384-well plates for 16 h. On day two, nine serial 1:2 compound dilutions were made in DMSO in a 96 well plate. The compounds were further diluted into growth media using a Rapidplate® robot (Zymark Corp., Hopkinton, Mass.). The diluted compounds were then added to quadruplicate wells in 384-well cell plates and incubated at 37° C. and 5% CO2. After 4 days, relative numbers of viable cells were measured by luminescence using Cell Titer-Glo® (Promega) according to the manufacturer's instructions and read on a Wallac Multilabel Reader® (PerkinElmer, Foster City). EC50 values were calculated using Prism® 4.0 software (GraphPad, San Diego). […]

[2] = MCF7, Table 1a, read-out: ER-alpha MCF7 HCS (EC50)
[3] = MCF7, Table 2, Comparator compounds, read-out: ER-alpha MCF7 HCS EC50

Row | SMILES | ER-alpha MCF7 HCS (S inf) [1] | EC50 (MCF7 cells; [2]) | EC50 (MCF7 cells; [3])
1 | C[C@@H]1Cc2c([nH]c3ccccc23)[C@@H](c2c(F)cc([C@@H](F)C3CN(CCCF)C3)cc2F)N1CC(F)(F)CO (single isomer, unassigned) [Compound 104] | −99.99% | 0.017 nM | –
2 | C[C@@H]1Cc2c([nH]c3ccccc23)[C@@H](c2c(F)cc([C@H](F)C3CN(CCCF)C3)cc2F)N1CC(F)(F)CO (single isomer, unassigned) [Compound 105] | −97.71% | 0.021 nM | –
3 | C[C@@H]1Cc2c([nH]c3ccc(F)cc23)[C@@H](c2c(F)cc([C@H](O)C3CN(CCCF)C3)cc2F)N1CC(F)(F)CO (single isomer, unassigned) [Compound 114] | −100.60% | 0.035 nM | –
4 | C[C@@H]1Cc2c([nH]c3ccc(F)cc23)[C@@H](c2c(F)cc([C@@H](O)C3CN(CCCF)C3)cc2F)N1CC(F)(F)CO (single isomer, unassigned) [Compound 115] | −100.58% | 0.065 nM | –
5 | C[C@@H]1Cc2c([nH]c3ccccc23)[C@@H](c2c(F)cc([C@H](O)C3CN(CCCF)C3)cc2F)N1CC(F)F (single isomer, unassigned) [Compound 121] | −98.21% | 0.068 nM | –
6 | C[C@@H]1Cc2c([nH]c3ccccc23)[C@@H](c2c(F)cc([C@@H](O)C3CN(CCCF)C3)cc2F)N1CC(F)F (single isomer, unassigned) [Compound 122] | −98.05% | 0.035 nM | –
7 | C[C@H]1Cc2c([nH]c3c(F)cccc23)[C@H](c2c(F)cc([C@H](O)C3CN(CCCF)C3)cc2F)N1CC(F)(F)CO (single isomer, unassigned) [Compound 131] | −95.59% | 7.64 nM | –
8 | C[C@H]1Cc2c([nH]c3c(F)cccc23)[C@H](c2c(F)cc([C@@H](O)C3CN(CCCF)C3)cc2F)N1CC(F)(F)CO (single isomer, unassigned) [Compound 132] | −91% | 9.7 nM | –
9 | C[C@@H]1Cc2c([nH]c3ccccc23)[C@@H](c2c(F)cc([C@@H](O)C3CN(CCCF)C3)cc2F)N1C[C@H](F)CO (single isomer, unassigned) [Compound 139] | – | 0.31 nM | –
10 | C[C@@H]1Cc2c([nH]c3ccccc23)[C@@H](c2c(F)cc(NC3CN(CCCF)C3)cc2F)N1CC(F)(F)CO [Comparator compound A, 3-[(1R,3R)-1-[2,6-difluoro-4-[[1-(3-fluoropropyl)azetidin-3-yl]amino]phenyl]-3-methyl-1,3,4,9-tetrahydropyrido[3,4-b]indol-2-yl]-2,2-difluoro-propan-1-ol, reference compound] | – | – | 0.027 nM
11 | C[C@@H]1Cc2c([nH]c3ccccc23)[C@@H](c2ccc([C@@H](O)C3CN(CCCF)C3)cc2)N1CC(C)(C)F [Comparator compound B, (S)-(4-((1R,3R)-2-(2-fluoro-2-methylpropyl)-3-methyl-2,3,4,9-tetrahydro-1H-pyrido[3,4-b]indol-1-yl)phenyl)(1-(3-fluoropropyl)azetidin-3-yl)methanol, reference compound] | – | – | 0.065 nM
12 | C[C@@H]1Cc2c([nH]c3ccccc23)[C@@H](c2ccc([C@H](O)C3CN(CCCF)C3)cc2)N1CC(C)(C)F [Comparator compound C, (R)-(4-((1R,3R)-2-(2-fluoro-2-methylpropyl)-3-methyl-2,3,4,9-tetrahydro-1H-pyrido[3,4-b]indol-1-yl)phenyl)(1-(3-fluoropropyl)azetidin-3-yl)methanol, reference compound] | – | – | 0.12 nM
13 | C[C@@H]1Cc2c([nH]c3ccccc23)[C@@H](c2c(F)cc([C@@H](F)C3CN(CCCF)C3)cc2F)N1CC(C)(C)F [Compound 102, (1R,3R)-1-(2,6-difluoro-4-((S)-fluoro(1-(3-fluoropropyl)azetidin-3-yl)methyl)phenyl)-2-(2-fluoro-2-methylpropyl)-3-methyl-2,3,4,9-tetrahydro-1H-pyrido[3,4-b]indole] | – | 0.137 nM | –
